Measurements: PMC11161652, “ASXLs binding to the PHD2/3 fingers of MLL4 provides a mechanism for the recruitment of BAP1 to active enhancers” (Nature Communications, 2024)
pKd: −log10 of the molar value. Ends that are not written are not given here.

Assays:
[1] = biological target: T1, MLL4PHD2/3 V290K (Homo sapiens, UniProt O14686, V290K); assay: NMR titration binding, V290K MLL4PHD2/3; conditions: 1H,15N HSQC titration, 0.1 mM protein, 20 mM Tris pH 6.8, 150 mM NaCl, 298 K
T1 construct: MLL4 (aa 227-324); GST (N, cleaved yes); made in house; host or cells: E. coli BL21-CodonPlus
Procedure: (§1) All constructs were expressed in BL21-CodonPlus competent cells.
(§2) For NMR titration experiments, ^1H,^15N HSQC spectra of 0.1 mM uniformly ^15N-labeled WT or mutated MLL4PHD2/3, MLL3PHD2/3 or MLL3PHD4 were recorded while WT or mutated ASXL2 (aa 650-670, 650-664, 656-670) and ASXL3 (aa 1047-1067) peptides (synthesized by SynPeptide) or MLL3PHD2/3 were added stepwise. All experiments were carried out in 20 mM Tris buffer (pH 6.8), 150 mM NaCl, and 3 mM DTT, containing 7% D2O. The dissociation constants (Kds) were determined by a nonlinear least-squares analysis in GraphPad Prism using the equation:1 △δ=△δmaxL+P+Kd−L+P+Kd^2−4PL/2P where [L] is concentration of the peptide, [P] is concentration of the protein, Δδ is the observed chemical shift change, and Δδmax is the normalized chemical shift change at saturation. Normalized chemical shift changes were calculated using the equation Δδ=△δH^2+△sn/5^2 (2), where Δδ is the change in chemical shift in parts per million (ppm).

[2] = biological target: T2, MLL4PHD2/3 L256K (Homo sapiens, UniProt O14686, L256K); assay: NMR titration binding, L256K MLL4PHD2/3; conditions: 1H,15N HSQC, 0.1 mM protein, 20 mM Tris pH 6.8, 298 K
T2 construct: MLL4 (aa 227-324); GST (N, cleaved yes); made in house; host or cells: E. coli BL21-CodonPlus
Procedure: as §1, §2

[3] = biological target: T3, MLL4PHD2/3 K274E (Homo sapiens, UniProt O14686, K274E); assay: NMR titration binding, K274E MLL4PHD2/3; conditions: 1H,15N HSQC titration, 0.1 mM protein, 20 mM Tris pH 6.8, 150 mM NaCl, 298 K
T3 construct: MLL4 (aa 227-324); GST (N, cleaved yes); made in house; host or cells: E. coli BL21-CodonPlus
Procedure: as §1, §2

[4] = biological target: T4, MLL4PHD2/3 D257K/D285K (Homo sapiens, UniProt O14686, D257K/D285K); assay: NMR titration binding, D257K/D285K MLL4PHD2/3; conditions: 1H,15N HSQC titration, 0.1 mM protein, 20 mM Tris pH 6.8, 150 mM NaCl, 298 K
T4 construct: MLL4 (aa 227-324); GST (N, cleaved yes); made in house; host or cells: E. coli BL21-CodonPlus
Procedure: as §1, §2

[5] = biological target: T5, MLL3PHD2/3 D372K/D400K (Homo sapiens, UniProt Q8NEZ4, D372K/D400K); assay: NMR titration binding, D372K/D400K MLL3PHD2/3; conditions: 1H,15N HSQC titration, 0.1 mM protein, 20 mM Tris pH 6.8, 150 mM NaCl, 298 K
T5 construct: human MLL3 (aa 342-439); GST (N, cleaved yes); made in house; host or cells: E. coli BL21-CodonPlus
Procedure: as §1, §2

[6] = biological target: T6, MLL4PHD2/3 D285K (Homo sapiens, UniProt O14686, D285K); assay: NMR titration binding, D285K MLL4PHD2/3; conditions: 1H,15N HSQC titration, 0.1 mM protein, 20 mM Tris pH 6.8, 150 mM NaCl, 3 mM DTT, 7% D2O, 298 K, mean ± SD, n = 3
T6 construct: MLL4 (aa 227-324); GST (N, cleaved yes); made in house; host or cells: E. coli BL21-CodonPlus
Procedure: as §1
Normalized chemical shift changes were calculated using the equation Δδ=△δH^2+△sn/5^2 (2), where Δδ is the change in chemical shift in parts per million (ppm).

T4 sequence (O14686 227-324 D257K/D285K): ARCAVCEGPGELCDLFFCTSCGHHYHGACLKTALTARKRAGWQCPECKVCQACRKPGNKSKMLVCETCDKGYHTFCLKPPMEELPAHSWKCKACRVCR
T1 sequence (O14686 227-324 V290K): as the sequence (O14686 227-324 D257K/D285K) above, with K31D, K59D, V64K counted along it
T5 sequence (Q8NEZ4 342-439 D372K/D400K): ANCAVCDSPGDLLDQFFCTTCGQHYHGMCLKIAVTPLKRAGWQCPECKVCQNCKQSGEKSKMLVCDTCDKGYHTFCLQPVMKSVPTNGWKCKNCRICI
T3 sequence (O14686 227-324 K274E): as the sequence (O14686 227-324 D257K/D285K) above, with K31D, K48E, K59D counted along it
T6 sequence (O14686 227-324 D285K): as the sequence (O14686 227-324 D257K/D285K) above, with K31D counted along it
T2 sequence (O14686 227-324 L256K): as the sequence (O14686 227-324 D257K/D285K) above, with L30K, K31D, K59D counted along it

In the case of NRTGARTLADIKAKAQLVKAQ [ASXL2 650-670], the Kd [1] was “no binding”, the Kd [2] was “unfolded” and the Kd [3] was “no binding”. For the same sequence, the Kd [4] was “no binding”, the Kd [5] was “no binding” and the pKd [6] was 2.77.
